Laboratory results reported in patent US9051418B2, “Glucose-PEG conjugates for reducing glucose transport into a cell” (Agency for Science, Technology and Research, priority 2008, dated 2015).
“Also recorded” adds a separate entry of the source.

Assays:
[1] = test system: MCF-7 cells; assay: MTT cell viability assay, MCF-7 cells cultured 7 days with modified glucose; settings: MCF-7, different concentrations
Description: MCF-7 cells were seeded onto 96-well plates at least 24 h prior to the experiment. […] MTT assay was performed to assess the cell viability. […] Cell viability was normalized with that of the control cells. […] The cells were treated as described in FIG. 3, followed by the MTT assay. […] MTT assay was carried out to monitor the viability of the cells. Values obtained for the cells without any treatments were kept as 100%. Different cancer cell lines, MCF-7 (breast cancer), H1299 (lung cancer), HepG2 (liver cancer), DU145 (prostate cancer), Caco2 (colon cancer) and AGS (gastric cancer) were obtained from American Type Culture Collection (ATCC). Normal breast epithelial cell line (MCF-10A) was used for comparison. The cells were maintained in the growth medium as described by ATCC. Approximately 10,000 cells were seeded onto a 96-well plate. Modified glucose compounds were added to the cells after 24 h of seeding. The cells were further cultured in the presence of the modified glucose compounds for up to 7 days. The medium was changed everyday along with the specified concentration of modified glucose. […] MTT assay was performed using the TACS™ MTT cell proliferation assay kit (Trevigen Inc, Md., USA). Briefly, after treatment of cells, 10 μl of MTT reagent was added and incubated at 37° C. for 4 h. […] The absorbance was measured in a standard plate reader at 570 nm.

[2] = test system: MCF-7 cells; assay: Fluorescence imaging of cells labeled with GPB; format: cell-based, human; settings: MCF-7, live fluorescence imaging after incubation and PBS wash
Description: They were washed with PBS before fluorescence imaging. Scale bar=500 μm. The MCF-7 cells were seeded on a 6-well plate at least 24 h prior to imaging. […] The cells were washed with PBS (without calcium and magnesium) thrice. Live imaging was performed with fluorescence microscopy. Metamorph (Molecular Devices, USA) and Image J (freeware from NIH, USA) were used for image capturing and processing.

[3] = target: T1, GLUT1 (Homo sapiens, UniProt P11166); assay: Glucose competition binding assay with GPB fluorescence; settings: MCF-7, 200 μM GPB, glucose 10-40 mM, 30 min, 37° C.
T1 construct: host or cells: MCF-7 human breast cancer cells
T1 sequence (P11166 1-492): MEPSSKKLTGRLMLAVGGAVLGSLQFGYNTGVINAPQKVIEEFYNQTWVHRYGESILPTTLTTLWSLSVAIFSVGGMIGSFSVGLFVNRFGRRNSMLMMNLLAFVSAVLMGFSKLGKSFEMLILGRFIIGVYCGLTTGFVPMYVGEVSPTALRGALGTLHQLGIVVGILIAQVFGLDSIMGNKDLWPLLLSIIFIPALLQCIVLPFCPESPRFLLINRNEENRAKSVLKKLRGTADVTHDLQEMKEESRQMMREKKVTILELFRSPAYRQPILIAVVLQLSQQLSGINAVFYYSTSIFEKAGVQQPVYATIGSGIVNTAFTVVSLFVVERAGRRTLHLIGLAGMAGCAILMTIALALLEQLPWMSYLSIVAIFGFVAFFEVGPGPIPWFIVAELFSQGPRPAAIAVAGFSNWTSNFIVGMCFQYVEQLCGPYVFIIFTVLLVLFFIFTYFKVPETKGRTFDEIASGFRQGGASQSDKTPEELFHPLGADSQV
Description: FIG. 6: Competition assay. […] The cells were incubated for 30 min at 37° C. The cells were washed with PBS, and the total intensity was measured using a plate reader.
FIG. 10: Binding of GBP to GLUT1. […] After 30 minutes the fluorescence intensity was measured using a plate reader.
The medium was removed and the cells were washed briefly with PBS twice. The fluorescence intensity was measured with an excitation of 488 nm and an emission of 522 nm. The fluorescence intensity was normalized by that of the control cells.
A glucose competition assay was carried out to confirm that the modified glucose-PEG is binding to the GLUT1 receptors. Increasing concentrations of un-modified glucose were used. […] After 30 minutes the fluorescence intensity was measured using a plate reader.

[4] = test system: H1299; settings: H1299, 200 μM, 3 days
Description: Human lung cancer cells (H1299) were treated for 3 days with 200 μM of modified glucose (GBrP). Control cells were prepared without treatment. Total RNA was extracted from the cells and reverse transcribed. A PCR array containing primers to identify the apoptotic pathway was used to identify the apoptosis pathway between control and treated cells in lung cancer cells.
Gene expression analysis was carried out to understand the apoptosis pathway during the modified glucose mediated cell death.

[5] = test system: different cancer cell lines; settings: 200 μM, MTT, Table 1
Description: MTT assay was carried out to monitor the viability of the cells. Values obtained for the cells without any treatments were kept as 100%.
Different cancer cell lines, MCF-7 (breast cancer), H1299 (lung cancer), HepG2 (liver cancer), DU145 (prostate cancer), Caco2 (colon cancer) and AGS (gastric cancer) were obtained from American Type Culture Collection (ATCC). Normal breast epithelial cell line (MCF-10A) was used for comparison. The cells were maintained in the growth medium as described by ATCC. Approximately 10,000 cells were seeded onto a 96-well plate. Modified glucose compounds were added to the cells after 24 h of seeding. The cells were further cultured in the presence of the modified glucose compounds for up to 7 days. The medium was changed everyday along with the specified concentration of modified glucose.
MTT assay was performed using the TACS™ MTT cell proliferation assay kit (Trevigen Inc, Md., USA). Briefly, after treatment of cells, 10 μl of MTT reagent was added and incubated at 37° C. for 4 h. The cells were lysed using detergent for 4 h at room temperature. The absorbance was measured in a standard plate reader at 570 nm.

[6] = test system: DU145; settings: DU145, 200 μM, 3 days
[7] = test system: tumor; settings: animal studies, supplemental 2-DG; cited from earlier work
[8] = test system: SkBr3 (human breast cancer) cell line; settings: SkBr3, concentration of 4 mM; cited from earlier work

Glucose-PEG-BODIPY [GPB]
dose-dependent effect on cell viability [1]: gradual dose-dependent decrease in the cell viability | localization of fluorescence in cells [2]: localized on the plasma membrane of the cells | competition of un-modified glucose with GPB binding (fluorescence intensity) [3]: glucose competed with the GPB in binding to the GLUTs; also recorded: intensity of the fluorescence decreases with the increase in un-modified glucose

glucose-conjugated branched PEG [GBrP]
apoptosis pathway gene expression, treated vs control [4]: AKT1 and ABL1 were down regulated while APAF1 and TP53BP were upregulated | inhibition of viability of various different cancer cell lines [5]: significantly inhibit the viability | apoptosis pathway gene expression, treated vs control [6]: AKT1 and ABL1 were down regulated while APAF1 and TP53BP were upregulated

O=CC[C@@H](O)[C@H](O)[C@H](O)CO [2-DG, 2-deoxyglucose]
tumor growth [7]: growth of the tumor was inhibited | apoptotic cells [8]: 50%
